Laboratory results taken from PMC11859040 (Pharmaceuticals, 2025).
Values after ≈ are worked out from the molar mass of the structure shown.

Columns and labels:
[1] = test system: ARPE-19 cells; assay: Indirect quantification of CUR uptake (CUR recovered in medium); format: cell-based, human
Description: ARPE-19 cells were seeded on acid-etched coverslips placed into a 6-well plate with a seeding density of 850,000 cells/well and incubated at 37 °C for 24 h. The cells were then incubated with media containing AC at the same concentration that was used for the cytotoxicity experiment. After 3 h of exposure to the AC and C formulations, the coverslips were removed, washed twice with PBS, and fixed with 4% paraformaldehyde (PFA) for 15 min. Subsequently, the PFA was removed, followed by two washes with PBS. […] Cell imaging was conducted using a ZEISS Axio Imager M2 fluorescent microscope (Carl Zeiss Microscopy Deutschland GmbH, Oberkochen, Germany). […] The experiments were conducted 24 h after seeding, using an FBS-free medium. The cells were rinsed once with a serum-free medium to remove the FBS residues and then exposed to 0.1–2 μM concentrations of SNEDD-CUR diluted in a medium. After a 3 h exposure period, the medium was removed and collected into another 96-well plate.

[2] = Solubility of CUR in water (inherent vs apparent with SNEDDS); format: physicochemical
[3] = test system: ARPE-19 cells; assay: Cytocompatibility, MTT assay, ARPE-19 cells; format: cell-based, human; conditions: 5 μM CUR, 3 h, vs control
Description: The ARPE-19 cell line obtained from the American Type Culture Collection (ATCC, Manassas, VA, USA) was used in the study. Cells were cultured in Dulbecco’s modified eagle medium/nutrition mix F-12 (1:1; Gibco, Paisley, UK) supplemented with 10% fetal bovine serum (FBS; Hyclone, Logan, UT, USA), 100 U/mL penicillin (Lonza, Walkersville, MD), and 2 mM L-glutamine (Lonza, Walkersville, MD, USA). The cells were grown at 37 °C in a humidified 5% CO2 atmosphere. The experiments were performed 24 h after seeding using an FBS-free medium. […] The cells were exposed for 3 h before the cell viability tests. Cell viability was assessed using the MTT assay. Cells were assessed with microscopy before the viability test to confirm the correlation of the absorbance readings from the MTT assay.

[4] = test system: HCE cells; assay: Cytocompatibility, MTT assay, HCE cells; format: cell-based, human; conditions: 5 μM CUR, 3 h, vs control
Description: HCE cells were cultured at 37 °C and 5% CO2 using a growth medium consisting of 1:1 DMEM/F12 (Gibco by Life Technologies Limited, Paisley, UK), 15% FBS (fetal bovine serum; Gibco by Life Technologies Limited, Paisley, UK), 100 U/mL penicillin, 0.1 mg/mL streptomycin (penicillin/streptomycin solution from EuroClone spa, Pero, Italy), 0.3 mg/mL L-glutamine (EuroClone spa, Pero, Italy), 10 ng/mL EGF (Recombinant Human Epidermal Growth Factor; Gibco by Life Technologies Corporation, Carlsbad, CA, USA), 5 μg/mL human recombinant insulin (Gibco by Life Technologies Corporation, Grand Island, NY, USA), and 0.5% sterile filtrated DMSO (Sigma-Aldrich, St. Louis, MO, USA), 0.1 μg/mL cholera toxin (Sigma-Aldrich, St. Louis, MO, USA). The fresh growth medium was changed for the cells every 2–3 days. When reaching a 75–80% confluence, the cells were either subcultured 1:5–1:30 or seeded for the experiment. Upon confluence, the cells were washed with 1xDPBS (Gibco by Life Technologies Limited, Paisley, UK) and detached with 0.05% trypsin–EDTA (Gibco by Life Technologies Limited, Paisley, UK). […] Cell viability was assessed using the 3-(4,5-dimethyl-thiazol-2-yl)-2,5-diphenyltetrazolium bromide (MTT) assay. Cells were assessed with microscopy before the viability test to confirm the correlation of the absorbance readings from the MTT assay.

[5] = test system: cell proliferation; conditions: cited from earlier work
[6] = test system: ARPE-19 cells; assay: Cell viability in HQ-induced oxidative stress (MTT); format: cell-based, human; conditions: ARPE-19, 600 μM HQ
Description: (§1) […] Cells were rinsed once using an FBS-free medium to remove any residual CUR-SNEDDS. Afterward, the oxidative stress-provoking agent, HQ (Sigma-Aldrich), was added. The cells were exposed to 600 μM HQ for 2 h to achieve 60–70% viability, as determined in the control samples [44]. Cell viability was assessed using the MTT assay. Cells were assessed with microscopy before the viability test to confirm the correlation of the absorbance readings from the MTT assay.

[7] = CUR solubility in different vehicles (oils and surfactants); format: physicochemical; conditions: for solubility at 24 h: 25 °C, thermodynamic from solid
Description: Different types of oils were selected based on biocompatibility and biodegradability: Mygliol® 812, Capryol® PGMC and Capryol® 90, Tegin® O, Isopropylmyristate (IPM), and Castor oil. Five surfactants, including Tween® 20, Tween® 80, Cremophor EL®, Solutol ®HS15, and Transcutol® P, were selected for the experiment in order to investigate the best materials for CUR-SNEDDS preparation. […] The mixtures were stirred (350 rpm) using a magnetic stirrer for 24 h. The samples were covered in order to prevent photo-degradation. […] The absorbance reading occurred at 422 nm.

[8] = Stability of CUR in PBS and in SNEDDS under storage conditions; format: physicochemical; conditions: PBS, 6 h
Description: HPLC analysis was performed on a reversed-phase C18 column (4.6 mm × 150 mm, 5 μm, ZORBAX Eclipse SB-C18) at 25 °C. The mobile phase was composed of water with 4% acetic acid and acetonitrile (44:56, v/v), filtered through a 0.22 μm Milli-pore filter and degassed prior to use. The flow rate was 0.850 mL/min, and the eluent was detected by a DAD detector at 430 nm.
The preparation of the sample AC followed the procedure described in Section 4.3. The sample was divided into four glass vials, with each set of vials being stored under different conditions, namely at 4 °C dark, 25 °C dark, 25 °C light, and 40 °C dark, to assess the typical storage conditions and investigate possible protection from degradation phenomena. Sample C was prepared differently. […] The mixture was then subjected to magnetic stirring at 350 rpm for 20 min. After stirring, the tube was centrifuged at 13,000 rpm for 20 min at 25 °C. The supernatant was collected and divided into four glass vials, each representing a different storage condition compared to the AC sample. […] HPLC analysis was employed to detect any variations in absorbance.

[9] = Cell viability in HQ-induced oxidative stress (MTT); format: cell-based, human; conditions: human, ARPE-19 cells; ARPE-19, 600 μM HQ alone
Description: as §1

Compound	CUR recovered in the medium (not internalized) ([1]; ARPE-19, 3 h, listed as free CUR)	CUR internalized ([1]; ARPE-19, concentration not stated (discussion))	CUR internalized inside the cells ([1]; ARPE-19, higher concentrations such as 1 μM and 2 μM, 3 h)	solubility [2]	Reduction in cell viability [3]	Reduction in cell viability [4]	IC50 ([5]; anticancer agent and cell proliferation blocker)	Concentrations at which CUR acts as anticancer agent and cell proliferation blocker [5]	Effect on cell viability compared to cells exposed to HQ [6]	solubility at 24 h ([7]; aqueous with cosolvent or surfactant or cyclodextrin, in Tween 80)	solubility at 24 h ([7]; oil or lipid, in Capryol 90)	solubility at 24 h ([7]; organic solvent or mixture, in Transcutol P)	Solubility of CUR ([7]; in Capryol PGMC)	CUR remaining / recovered ([8]; 4 °C)	CUR remaining / recovered ([8]; 25 °C (r.t.) dark)	CUR remaining / recovered ([8]; 25 °C (r.t.) dark, listed as Native CUR)	CUR remaining / recovered ([8]; 25 °C light)	CUR remaining / recovered ([8]; 40 °C dark)	viability at 2 h, 600 μM [9]
COc1cc(/C=C/C(=O)CC(=O)/C=C/c2ccc(O)c(OC)c2)ccc1O [CUR, Curcumin]	100%	0%	1%	< 1 µg/mL	not observed	not observed	~10 µM	5 to 10 µM	no significant difference	6800 µg/mL (≈ 18.5 mM)	8360 µg/mL (≈ 22.7 mM)	4610 µg/mL (≈ 12.5 mM)	8000 µg/mL	57%	less than 10%	9%	completely degraded	completely degraded	
Oc1ccc(O)cc1 [HQ, hydroquinone]																			70%
